This experiment concerns the target S1P1 (Homo sapiens, UniProt P21453). Description: 35S-GTPyS binding assay. The experiment is classed as biochemical. The conditions noted are these: membranes; compounds at 0.1nM-10µM; 0.1nM 35S-GTPyS; 10µM S1P used as 100% maximum efficacy; 90 min at room temperature. Here is the method:
The effect of the compounds was measured using a 35S-GTPyS binding assay. Briefly, membranes were incubated in a buffer containing 20 mM HEPES pH 7.4, 100 mM NaCl, 10 mM MgCl2, 10µM GDP, 50µg/ml saponin and 0.2% fatty acid-free BSA at various concentrations (0.1nM-10µM) and 0.1nM 35S-GTPyS. 10µM S1P was used as 100% maximum efficacy. The assay was incubated for 90 min at room temperature with gentle mixing, and terminated by filtrating the reaction mixture through GF/C filter plates using the Manifold Filtration System. The filters were immediately washed with sodium phosphate pH 7.4 buffers. After drying the filter plate's scintillant liquid were added to each well and 35S-GTPyS binding was measured on a Trilux Scintillation Counter.

What is called EC50 is the concentration needed to bring the measured effect to its halfway point. Higher therefore signals a less potent agent.

Chain of S1P1 (P21453 whole entry, species assumed): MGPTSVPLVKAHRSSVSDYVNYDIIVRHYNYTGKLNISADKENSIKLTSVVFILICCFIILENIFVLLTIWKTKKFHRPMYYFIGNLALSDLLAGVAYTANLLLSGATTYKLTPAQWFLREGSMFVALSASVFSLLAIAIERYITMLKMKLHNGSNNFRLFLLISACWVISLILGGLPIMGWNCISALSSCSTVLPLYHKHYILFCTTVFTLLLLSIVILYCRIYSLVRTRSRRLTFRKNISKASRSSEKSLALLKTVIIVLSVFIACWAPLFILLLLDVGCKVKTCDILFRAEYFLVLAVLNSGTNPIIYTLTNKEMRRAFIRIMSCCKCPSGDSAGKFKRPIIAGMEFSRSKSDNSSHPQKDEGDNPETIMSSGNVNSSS

Consider `CCCCN(Cc1ccccc1Cl)c1nnc(-c2cc(C)c(OC)c(C)c2)s1` [Example 1, N-Butyl-N-(2-chlorobenzyl)-5-(4-methoxy-3,5-dimethylphenyl)-1,3,4-thiadiazol-2-amine], for which the midpoint of the response, the EC50, lay at 39 nM.

Take `CCCCN(Cc1c(Cl)cccc1Cl)c1nnc(-c2ccnc(C)c2)s1` [Example 16, N-Butyl-N-(2,6-dichlorobenzyl)-5-(2-methylpyridin-4-yl)-1,3,4-thiadiazol-2-amine]: the response was half-maximal at 18 nM (EC50).

`CCCCN(Cc1ccccc1Cl)c1nnc(-c2cc(C)c(OC[C@H](O)CO)c(C)c2)s1` [Example 29, (2R)-3-(4-{5-[Butyl(2-chlorobenzyl)amino]-1,3,4-thiadiazol-2-yl}-2,6-dimethyl-phenoxy)propane-1,2-diol] came in with a half-maximal effective concentration (EC50) of 15 nM.

Consider `CCCCN(Cc1ccccc1Cl)c1nnc(-c2cc(C)c(OCC(O)CN)c(C)c2)s1` (stereo not shown) [Example 34, 1-Amino-3-(4-{5-[butyl(2-chlorobenzyl)amino]-1,3,4-thiadiazol-2-yl}-2,6-dimethyl-phenoxy)propan-2-ol], for which the response was half-maximal at 32 nM (EC50).

With `CCCCN(Cc1ccccc1F)c1nnc(-c2cc(C)c(OCCN3CC(C(=O)O)C3)c(C)c2)s1` [Example 35, 1-[2-(4-{5-[Butyl(2-fluorobenzyl)amino]-1,3,4-thiadiazol-2-yl}-2,6-dimethyl-phenoxy)ethyl]azetidine-3-carboxylic acid], the EC50 was 33 nM.

Regarding `CCCCN(Cc1ccccc1F)c1nnc(-c2cc(C)c(OCCNCCC(=O)O)c(C)c2)s1` [Example 36, N-[2-(4-{5-[Butyl(2-fluorobenzyl)amino]-1,3,4-thiadiazol-2-yl}-2,6-dimethyl-phenoxy)ethyl]-beta-alanine], the EC50 came out at 5 nM.

Compound `CCCCN(c1nnc(-c2ccc(CN3CC(C(=O)O)C3)cc2)s1)S(=O)(=O)Cc1ccccc1` [Example 43, 1-(4-{5-[(Benzylsulfonyl)(butyl)amino]-1,3,4-thiadiazol-2-yl}benzyl)azetidine-3-carboxylic acid] displayed an EC50 of 123 nM.

The values above are taken from patent publication EP2343287A1, “New 2-aminothiadiazole derivatives” (Almirall, S.A., priority 2009, dated 2011).
